Reference: patent US9980943B2, “Methods of treating muscular dystrophy” (BOARD OF REGENTS OF THE NEVADA SYSTEM OF HIGHER EDUCATION, …, priority 2013, dated 2018)

How the values were obtained:
Type in all cases: cell-based, mouse
[1] = system: α7 integrin (LacZ reporter in α7βgal+/− myoblasts); experiment: Myoblast α7+/LacZ integrin FDG assay (Burkin assay in myoblasts, 96-well); conditions: α7+/LacZ myoblasts, 96-well
[2] = system: α7 integrin (LacZ reporter in α7+/LacZ myotubes); experiment: Myotube α7 integrin FDG assay (Burkin assay in myotubes, 96-well); conditions: myotubes
[3] = system: β-galactosidase in CMV-LacZ C2C12 myotubes; experiment: CMV-LacZ secondary screen in C2C12 myotubes (β-Gal stabilizing assay); conditions: for CMV-LACZ in Myotubes (β-galactosidase activity relative to DMSO): CMV-LacZ C2C12 myotubes, 96-well format
Summary of the method: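 Stable CMV-LacZ C2C12 clone; six-point curve 0.5–40 μM; duplicates.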

[4] = 5 uM, C2C12 CMV-LacZ myotubes, fold relative to DMSO
[5] = 10 uM, C2C12 CMV-LacZ myotubes, fold relative to DMSO
[6] = 20 uM, C2C12 CMV-LacZ myotubes, fold relative to DMSO
[7] = 40 uM, C2C12 CMV-LacZ myotubes, fold relative to DMSO

| Structure (SMILES) | Burkin Assay in Myoblasts, signal relative to DMSO ([1]; 0.5 uM) | Burkin Assay in Myoblasts, signal relative to DMSO ([1]; 1 uM) | Burkin Assay in Myoblasts, signal relative to DMSO ([1]; 5 uM) | Burkin Assay in Myoblasts, signal relative to DMSO ([1]; 10 uM) | Burkin Assay in Myoblasts, signal relative to DMSO ([1]; 20 uM) | Burkin Assay in Myoblasts, signal relative to DMSO ([1]; 40 uM) | Burkin Assay in Myotubes, α7 integrin LacZ reporter signal relative to DMSO ([2]; 0.5 uM) | Burkin Assay in Myotubes, α7 integrin LacZ reporter signal relative to DMSO ([2]; 1 uM) | Burkin Assay in Myotubes, α7 integrin LacZ reporter signal relative to DMSO ([2]; 5 uM) | Burkin Assay in Myotubes, α7 integrin LacZ reporter signal relative to DMSO ([2]; 10 uM) | Burkin Assay in Myotubes, α7 integrin LacZ reporter signal relative to DMSO ([2]; 20 uM) | Burkin Assay in Myotubes, α7 integrin LacZ reporter signal relative to DMSO ([2]; 40 uM) | CMV-LACZ in Myotubes, signal relative to DMSO [3, 4] | CMV-LACZ in Myotubes, signal relative to DMSO [3, 5] | CMV-LACZ in Myotubes, signal relative to DMSO [3, 6] | CMV-LACZ in Myotubes, signal relative to DMSO [3, 7] | other results |
| --- | --- | --- | --- | --- | --- | --- | --- | --- | --- | --- | --- | --- | --- | --- | --- | --- | --- |
| COc1ccccc1NC(=O)CCCc1c[nH]c2ccccc12 [MLS000334464-01] |  |  |  |  |  |  |  |  |  |  |  |  |  |  |  |  | fold induction at 0.5 µM ([1]; Mus musculus, Myoblast, 48 h, 0.5 uM, read-out: Burkin Assay in Myoblasts, value relative to DMSO): 1.13; fold induction at 1 µM ([1]; Mus musculus, Myoblast, 48 h, 1 uM, read-out: Burkin Assay in Myoblasts, value relative to DMSO): 1.11; fold induction at 5 µM ([1]; Mus musculus, Myoblast, 48 h, 5 uM, read-out: Burkin Assay in Myoblasts, value relative to DMSO): 1.18; fold induction at 10 µM ([1]; Mus musculus, Myoblast, 48 h, 10 uM, read-out: Burkin Assay in Myoblasts, value relative to DMSO): 1.14; fold induction at 20 µM ([1]; Mus musculus, Myoblast, 48 h, 20 uM, read-out: Burkin Assay in Myoblasts, value relative to DMSO): 0.896; fold induction at 40 µM ([1]; Mus musculus, Myoblast, 48 h, 40 uM, read-out: Burkin Assay in Myoblasts, value relative to DMSO): 1.08; fold induction at 0.5 µM ([2]; Mus musculus, Myotube, 0.5 uM, read-out: Burkin Assay in Myotubes (signal relative to DMSO)): 0.986; fold induction at 1 µM ([2]; Mus musculus, Myotube, 1 uM, read-out: Burkin Assay in Myotubes (signal relative to DMSO)): 0.88; fold induction at 5 µM ([2]; Mus musculus, Myotube, 5 uM, read-out: Burkin Assay in Myotubes (signal relative to DMSO)): 1; fold induction at 10 µM ([2]; Mus musculus, Myotube, 10 uM, read-out: Burkin Assay in Myotubes (signal relative to DMSO)): 0.992; fold induction at 20 µM ([2]; Mus musculus, Myotube, 20 uM, read-out: Burkin Assay in Myotubes (signal relative to DMSO)): 1.13; fold induction at 40 µM ([2]; Mus musculus, Myotube, 40 uM, read-out: Burkin Assay in Myotubes (signal relative to DMSO)): 0.666; fold induction at 5 µM ([3]; Mus musculus, C2C12, read-out: CMV-LACZ in Myotubes, signal relative to DMSO, 5 uM, C2C12 CMV-LacZ myotubes, fold relative to DMSO): 1.3; fold induction at 10 µM ([3]; Mus musculus, C2C12, read-out: CMV-LACZ in Myotubes, signal relative to DMSO, 10 uM, C2C12 CMV-LacZ myotubes, fold relative to DMSO): 1.08; fold induction at 20 µM ([3]; Mus musculus, C2C12, read-out: CMV-LACZ in Myotubes, signal relative to DMSO, 20 uM, C2C12 CMV-LacZ myotubes, fold relative to DMSO): 0.988; fold induction at 40 µM ([3]; Mus musculus, C2C12, read-out: CMV-LACZ in Myotubes, signal relative to DMSO, 40 uM, C2C12 CMV-LacZ myotubes, fold relative to DMSO): 0.964 |
| CC(C)(C)n1cnc2cc(NC(=O)c3ccco3)ccc21 [MLS001223567-01] | 1.044 | 1.082 | 0.9608 | 0.9203 | 0.8579 | 0.864 | 0.9533 | 0.9978 | 0.8636 | 0.924 | 0.9991 | 0.9931 | 1.002 | 0.8931 | 1.241 | 1.012 |  |
| CCOc1cc(/C=C2\C(=O)ON=C2c2ccccc2)ccc1OC [MLS001196946-01] |  |  |  |  |  |  |  |  |  |  |  |  |  |  |  |  | Burkin Assay in Myoblasts, value relative to DMSO ([1]; 0.5 uM): 0.9541; Burkin Assay in Myoblasts, value relative to DMSO ([1]; 1 uM): 0.9798; Burkin Assay in Myoblasts, value relative to DMSO ([1]; 5 uM): 0.7989; Burkin Assay in Myoblasts, value relative to DMSO ([1]; 10 uM): 0.6188; Burkin Assay in Myoblasts, value relative to DMSO ([1]; 20 uM): 0.1194; Burkin Assay in Myoblasts, value relative to DMSO ([1]; 40 uM): 0.08385; Burkin Assay in Myotubes (signal relative to DMSO) ([2]; 0.5 uM): 0.9942; Burkin Assay in Myotubes (signal relative to DMSO) ([2]; 1 uM): 1.113; Burkin Assay in Myotubes (signal relative to DMSO) ([2]; 5 uM): 1.002; Burkin Assay in Myotubes (signal relative to DMSO) ([2]; 10 uM): 0.9469; Burkin Assay in Myotubes (signal relative to DMSO) ([2]; 20 uM): 0.5465; Burkin Assay in Myotubes (signal relative to DMSO) ([2]; 40 uM): 0.2832; CMV-LACZ in Myotubes (β-galactosidase activity relative to DMSO) ([3]; 5 uM): 0.9817; CMV-LACZ in Myotubes (β-galactosidase activity relative to DMSO) ([3]; 10 uM): 1.13; CMV-LACZ in Myotubes (β-galactosidase activity relative to DMSO) ([3]; 20 uM): 2.7886; CMV-LACZ in Myotubes (β-galactosidase activity relative to DMSO) ([3]; 40 uM): 3.9614 |
| COc1ccccc1C(=O)NCCOc1ccc(C(C)(C)C)cc1 [MLS001179624-01] | 0.993 | 0.9963 | 0.9515 | 0.9314 | 0.879 | 0.8828 | 0.9052 | 0.9709 | 1.048 | 1.104 | 0.8903 | 0.2183 | 0.8604 | 0.8788 | 0.452 | 0.4965 |  |
| COc1cc(C(C(=O)NC2CCCCC2)N(C(=O)c2snc(C(N)=O)c2N)c2ccc(C)cc2)ccc1O (stereo not drawn) [MLS001218427-01] | 0.9466 | 0.9485 | 0.8334 | 0.7663 | 0.2232 | 0.3039 | 0.8052 | 0.7974 | 0.8464 | 0.6054 | 0.3311 | 0.429 | 1.209 | 15.1793 | 34.571 | 0.6965 |  |
| COc1ccc(CNC(=O)COC(=O)CCc2c[nH]c3ccccc23)cc1 [MLS001033202-01] | 0.6682 | 0.9153 | 0.9952 | 0.9282 | 0.8408 | 0.7704 | 1.057 | 1.019 | 1.042 | 1.0906 | 1.051 | 0.986 | 0.9658 | 0.9933 | 0.8214 | 1.2 |  |
